Literature values as cited in patent US7615672B2, “Process for the preparation of n-heneicosane” (Defence Research & Development Organisation, priority 2005, dated 2009).

Test system: Aedes aegypti
Details: oviposition attractant pheromone

For `CCCCCCCCCCCCCCCCCCCCC` [n-heneicosane], the “concentration at which n-heneicosane attracts Aedes aegypti mosquitoes” value is listed as “less than 100 ppm”.
